According to patent US11492385B2, “Long-acting co-agonists of the glucagon and GLP-1 receptors” (Merck Sharp & Dohme Corp., priority 2015, dated 2022):
Starred links: 1 amine or outer side, 2 acyl side, 3 side chain; linkers in the order of their positions; H or OH if unused. Non-standard residues stand in square brackets, D forms with d. Residues, ends and D or L forms follow the SMILES beside them. Groups on a side chain read outwards from the residue. *: point of attachment. C20 diacid = O=C(O)CCCCCCCCCCCCCCCCCCC(=O)*; C19 diacid = O=C(O)CCCCCCCCCCCCCCCCCC(=O)*; C18 diacid = O=C(O)CCCCCCCCCCCCCCCCC(=O)*; C17 diacid = O=C(O)CCCCCCCCCCCCCCCC(=O)*; γGlu = O=C(O)[C@H](CCC(=O)[*:2])N[*:1]; C14 diacid = O=C(O)CCCCCCCCCCCCC(=O)*; Met(O2) = CS(=O)(=O)CC[C@H](N)C(=O)O; AEEA = NCCOCCOCC(=O)O; Aib = CC(C)(N)C(=O)O

Assays:
human GCGR = target: T1, human GCGR (Homo sapiens, UniProt P47871); test: cAMP activity assay, cells expressing human GCGR; assay type: cell-based; details: for EC50: cAMP production, cells expressing human GCGR, assay buffer with or without 20% human serum (not stated which), read-out: GCGR EC50 human; for hGCGR/hGLP1R (hTone): ratio of human GCGR EC50 to human GLP1R EC50
T1 construct: expressed in transfected cells; kept under Blasticidin and Hygromycin selection
How it was run: (§1)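 Peptides as 10-point titrations from DMSO tested on cells expressing human GLP1R or GCGR. cAMP measured by luminescent kit after overnight room-temperature incubation in the dark. EC50 from four-parameter logistic fit; native GLP-1 and glucagon as controls.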

human GLP1R = target: T2, human GLP1R (Homo sapiens, UniProt P43220); test: cAMP activity assay, cells expressing human GLP1R; assay type: cell-based; details: cAMP production, assay buffer with or without 20% human serum (not stated which)
T2 construct: expressed in transfected cells; kept under Blasticidin and Hygromycin selection
How it was run: as §1

T2 sequence (P43220 24-463): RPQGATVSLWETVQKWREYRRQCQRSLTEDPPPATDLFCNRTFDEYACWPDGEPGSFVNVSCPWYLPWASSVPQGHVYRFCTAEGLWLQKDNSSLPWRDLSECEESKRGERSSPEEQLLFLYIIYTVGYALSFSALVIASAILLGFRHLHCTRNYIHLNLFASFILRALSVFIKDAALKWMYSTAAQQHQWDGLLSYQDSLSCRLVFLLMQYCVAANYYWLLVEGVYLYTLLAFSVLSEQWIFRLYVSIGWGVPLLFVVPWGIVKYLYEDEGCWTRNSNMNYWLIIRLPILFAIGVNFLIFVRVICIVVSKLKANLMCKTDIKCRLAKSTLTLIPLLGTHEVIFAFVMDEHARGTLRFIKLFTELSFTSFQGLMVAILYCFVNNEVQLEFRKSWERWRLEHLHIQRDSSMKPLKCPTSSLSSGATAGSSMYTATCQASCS
T1 sequence (P47871 26-477): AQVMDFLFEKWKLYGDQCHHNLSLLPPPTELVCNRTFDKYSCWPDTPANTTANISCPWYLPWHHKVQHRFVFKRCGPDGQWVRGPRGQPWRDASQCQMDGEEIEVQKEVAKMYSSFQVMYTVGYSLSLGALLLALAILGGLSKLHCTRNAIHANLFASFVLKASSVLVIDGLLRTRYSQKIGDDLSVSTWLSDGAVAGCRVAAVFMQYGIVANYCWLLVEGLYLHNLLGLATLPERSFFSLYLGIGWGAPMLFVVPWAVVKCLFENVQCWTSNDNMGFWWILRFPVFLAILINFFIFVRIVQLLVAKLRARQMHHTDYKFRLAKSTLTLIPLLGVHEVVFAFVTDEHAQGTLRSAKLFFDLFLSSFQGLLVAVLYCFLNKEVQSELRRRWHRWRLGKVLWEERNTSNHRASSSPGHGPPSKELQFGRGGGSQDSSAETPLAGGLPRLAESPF

| SMILES | EC50 (human GCGR) | hGCGR/hGLP1R (hTone) (human GCGR) | EC50 (human GLP1R) |
| --- | --- | --- | --- |
| CC(C)C[C@H](NC(=O)[C@H](Cc1ccc(O)cc1)NC(=O)[C@H](CCCCN)NC(=O)[C@H](CO)NC(=O)[C@H](Cc1ccc(O)cc1)NC(=O)[C@H](CC(=O)O)NC(=O)[C@H](CO)NC(=O)[C@@H](NC(=O)[C@H](Cc1ccccc1)NC(=O)[C@@H](NC(=O)CNC(=O)[C@H](CCC(N)=O)NC(=O)C(C)(C)NC(=O)[C@@H](N)Cc1c[nH]cn1)[C@@H](C)O)[C@@H](C)O)C(=O)N[C@@H](CC(=O)O)C(=O)N[C@@H](C)C(=O)N[C@@H](CCCNC(=N)N)C(=O)N[C@@H](C)C(=O)N[C@@H](C)C(=O)N[C@@H](CCC(N)=O)C(=O)N[C@@H](CCCCNC(=O)COCCOCCNC(=O)COCCOCCNC(=O)CC[C@H](NC(=O)CCCCCCCCCCCCCCCCCCC(=O)O)C(=O)O)C(=O)N[C@@H](Cc1ccccc1)C(=O)N[C@H](C(=O)N[C@@H](CCC(N)=O)C(=O)N[C@@H](Cc1c[nH]c2ccccc12)C(=O)N[C@@H](CC(C)C)C(=O)N[C@@H](CCS(C)(=O)=O)C(=O)N[C@@H](CC(=O)O)C(=O)N[C@H](C(N)=O)[C@@H](C)O)C(C)C [compound 44] (H-H[Aib]QGTFTSDYSKYLDARAAQK([AEEA-AEEA-γGlu-C20 diacid])FVQWL[Met(O2)]DT-NH2; N-terminus assumed) | 0.22 nM | 0.92 | 0.24 nM |
| CC(C)C[C@H](NC(=O)[C@H](Cc1ccc(O)cc1)NC(=O)[C@H](CCCCN)NC(=O)[C@H](CO)NC(=O)[C@H](Cc1ccc(O)cc1)NC(=O)[C@H](CC(=O)O)NC(=O)[C@H](CO)NC(=O)[C@@H](NC(=O)[C@H](Cc1ccccc1)NC(=O)[C@@H](NC(=O)CNC(=O)[C@H](CCC(N)=O)NC(=O)C(C)(C)NC(=O)[C@@H](N)Cc1c[nH]cn1)[C@@H](C)O)[C@@H](C)O)C(=O)N[C@@H](CC(=O)O)C(=O)N[C@@H](C)C(=O)N[C@@H](CCCNC(=N)N)C(=O)N[C@@H](C)C(=O)N[C@@H](C)C(=O)N[C@@H](CCC(N)=O)C(=O)N[C@@H](CCCCNC(=O)COCCOCCNC(=O)COCCOCCNC(=O)CC[C@H](NC(=O)CCCCCCCCCCCCCCCCCC(=O)O)C(=O)O)C(=O)N[C@@H](Cc1ccccc1)C(=O)N[C@H](C(=O)N[C@@H](CCC(N)=O)C(=O)N[C@@H](Cc1c[nH]c2ccccc12)C(=O)N[C@@H](CC(C)C)C(=O)N[C@@H](CCS(C)(=O)=O)C(=O)N[C@@H](CC(=O)O)C(=O)N[C@H](C(N)=O)[C@@H](C)O)C(C)C [compound 46] (H-H[Aib]QGTFTSDYSKYLDARAAQK([AEEA-AEEA-γGlu-C19 diacid])FVQWL[Met(O2)]DT-NH2; N-terminus assumed) | 0.5 nM | 1.83 | 0.28 nM |
| CC(C)C[C@H](NC(=O)[C@H](Cc1ccc(O)cc1)NC(=O)[C@H](CCCCN)NC(=O)[C@H](CO)NC(=O)[C@H](Cc1ccc(O)cc1)NC(=O)[C@H](CC(=O)O)NC(=O)[C@H](CO)NC(=O)[C@@H](NC(=O)[C@H](Cc1ccccc1)NC(=O)[C@@H](NC(=O)CNC(=O)[C@H](CCC(N)=O)NC(=O)C(C)(C)NC(=O)[C@@H](N)Cc1c[nH]cn1)[C@@H](C)O)[C@@H](C)O)C(=O)N[C@@H](CC(=O)O)C(=O)N[C@@H](C)C(=O)N[C@@H](CCCNC(=N)N)C(=O)N[C@@H](C)C(=O)N[C@@H](C)C(=O)N[C@@H](CCC(N)=O)C(=O)N[C@@H](CCCCNC(=O)COCCOCCNC(=O)COCCOCCNC(=O)CC[C@H](NC(=O)CCCCCCCCCCCCCCCC(=O)O)C(=O)O)C(=O)N[C@@H](Cc1ccccc1)C(=O)N[C@H](C(=O)N[C@@H](CCC(N)=O)C(=O)N[C@@H](Cc1c[nH]c2ccccc12)C(=O)N[C@@H](CC(C)C)C(=O)N[C@@H](CCS(C)(=O)=O)C(=O)N[C@@H](CC(=O)O)C(=O)N[C@H](C(N)=O)[C@@H](C)O)C(C)C [compound 48] (H-H[Aib]QGTFTSDYSKYLDARAAQK([AEEA-AEEA-γGlu-C17 diacid])FVQWL[Met(O2)]DT-NH2) | 0.05 nM | 1.10 | 0.05 nM |
| CC(C)C[C@H](NC(=O)[C@H](Cc1c[nH]c2ccccc12)NC(=O)[C@H](CCCCNC(=O)COCCOCCNC(=O)COCCOCCNC(=O)CC[C@H](NC(=O)CCCCCCCCCCCCCCCCC(=O)O)C(=O)O)NC(=O)[C@@H](NC(=O)[C@H](Cc1ccccc1)NC(=O)[C@H](CC(=O)O)NC(=O)[C@H](CCC(N)=O)NC(=O)[C@H](C)NC(=O)[C@H](C)NC(=O)[C@H](CCCNC(=N)N)NC(=O)C(C)(C)NC(=O)[C@H](CC(=O)O)NC(=O)[C@H](CC(C)C)NC(=O)[C@H](Cc1ccc(O)cc1)NC(=O)[C@H](CCCCN)NC(=O)[C@H](CO)NC(=O)[C@H](Cc1ccc(O)cc1)NC(=O)[C@H](CC(=O)O)NC(=O)[C@H](CO)NC(=O)[C@@H](NC(=O)[C@H](Cc1ccccc1)NC(=O)[C@@H](NC(=O)CNC(=O)[C@H](CCC(N)=O)NC(=O)C(C)(C)NC(=O)[C@@H](N)Cc1c[nH]cn1)[C@@H](C)O)[C@@H](C)O)C(C)C)C(=O)N[C@@H](CCS(C)(=O)=O)C(=O)N[C@@H](CC(=O)O)C(=O)N[C@H](C(N)=O)[C@@H](C)O [compound 68] (H-H[Aib]QGTFTSDYSKYLD[Aib]RAAQDFVK([AEEA-AEEA-γGlu-C18 diacid])WL[Met(O2)]DT-NH2) | 0.595 nM | 0.7 | 0.866 nM |

The remaining lines, values ahead:

| EC50 (human GCGR) | hGCGR/hGLP1R (hTone) (human GCGR) | EC50 (human GLP1R) | SMILES |
| --- | --- | --- | --- |
| 0.92 nM | 1.3 | 0.69 nM | CC(C)C[C@H](NC(=O)[C@H](Cc1ccc(O)cc1)NC(=O)[C@H](CCCCN)NC(=O)[C@H](CO)NC(=O)[C@H](Cc1ccc(O)cc1)NC(=O)[C@H](CC(=O)O)NC(=O)[C@H](CO)NC(=O)[C@@H](NC(=O)[C@H](Cc1ccccc1)NC(=O)[C@@H](NC(=O)CNC(=O)[C@H](CCC(N)=O)NC(=O)C(C)(C)NC(=O)[C@@H](N)Cc1c[nH]cn1)[C@@H](C)O)[C@@H](C)O)C(=O)N[C@@H](CC(=O)O)C(=O)N[C@@H](C)C(=O)N[C@@H](CCCNC(=N)N)C(=O)N[C@@H](C)C(=O)N[C@@H](C)C(=O)N[C@@H](CCCCNC(=O)COCCOCCNC(=O)COCCOCCNC(=O)CC[C@H](NC(=O)CCCCCCCCCCCCCCCCCCC(=O)O)C(=O)O)C(=O)N[C@@H](CC(=O)O)C(=O)N[C@@H](Cc1ccccc1)C(=O)N[C@H](C(=O)N[C@@H](CCC(N)=O)C(=O)N[C@@H](Cc1c[nH]c2ccccc12)C(=O)N[C@@H](CC(C)C)C(=O)N[C@@H](CCS(C)(=O)=O)C(=O)N[C@@H](CC(=O)O)C(=O)N[C@H](C(N)=O)[C@@H](C)O)C(C)C [compound 43] (H-H[Aib]QGTFTSDYSKYLDARAAK([AEEA-AEEA-γGlu-C20 diacid])DFVQWL[Met(O2)]DT-NH2; N-terminus assumed) |
| 0.16 nM | 1.30 | 0.12 nM | CC(C)C[C@H](NC(=O)[C@H](Cc1ccc(O)cc1)NC(=O)[C@H](CCCCN)NC(=O)[C@H](CO)NC(=O)[C@H](Cc1ccc(O)cc1)NC(=O)[C@H](CC(=O)O)NC(=O)[C@H](CO)NC(=O)[C@@H](NC(=O)[C@H](Cc1ccccc1)NC(=O)[C@@H](NC(=O)CNC(=O)[C@H](CCC(N)=O)NC(=O)C(C)(C)NC(=O)[C@@H](N)Cc1c[nH]cn1)[C@@H](C)O)[C@@H](C)O)C(=O)N[C@@H](CC(=O)O)C(=O)N[C@@H](C)C(=O)N[C@@H](CCCNC(=N)N)C(=O)N[C@@H](C)C(=O)N[C@@H](C)C(=O)N[C@@H](CCCCNC(=O)COCCOCCNC(=O)COCCOCCNC(=O)CC[C@H](NC(=O)CCCCCCCCCCCCCCCCCC(=O)O)C(=O)O)C(=O)N[C@@H](CC(=O)O)C(=O)N[C@@H](Cc1ccccc1)C(=O)N[C@H](C(=O)N[C@@H](CCC(N)=O)C(=O)N[C@@H](Cc1c[nH]c2ccccc12)C(=O)N[C@@H](CC(C)C)C(=O)N[C@@H](CCS(C)(=O)=O)C(=O)N[C@@H](CC(=O)O)C(=O)N[C@H](C(N)=O)[C@@H](C)O)C(C)C [compound 45] (H-H[Aib]QGTFTSDYSKYLDARAAK([AEEA-AEEA-γGlu-C19 diacid])DFVQWL[Met(O2)]DT-NH2) |
| 0.04 nM | 1.91 | 0.02 nM | CC(C)C[C@H](NC(=O)[C@H](Cc1ccc(O)cc1)NC(=O)[C@H](CCCCN)NC(=O)[C@H](CO)NC(=O)[C@H](Cc1ccc(O)cc1)NC(=O)[C@H](CC(=O)O)NC(=O)[C@H](CO)NC(=O)[C@@H](NC(=O)[C@H](Cc1ccccc1)NC(=O)[C@@H](NC(=O)CNC(=O)[C@H](CCC(N)=O)NC(=O)C(C)(C)NC(=O)[C@@H](N)Cc1c[nH]cn1)[C@@H](C)O)[C@@H](C)O)C(=O)N[C@@H](CC(=O)O)C(=O)N[C@@H](C)C(=O)N[C@@H](CCCNC(=N)N)C(=O)N[C@@H](C)C(=O)N[C@@H](C)C(=O)N[C@@H](CCCCNC(=O)COCCOCCNC(=O)COCCOCCNC(=O)CC[C@H](NC(=O)CCCCCCCCCCCCC(=O)O)C(=O)O)C(=O)N[C@@H](CC(=O)O)C(=O)N[C@@H](Cc1ccccc1)C(=O)N[C@H](C(=O)N[C@@H](CCC(N)=O)C(=O)N[C@@H](Cc1c[nH]c2ccccc12)C(=O)N[C@@H](CC(C)C)C(=O)N[C@@H](CCS(C)(=O)=O)C(=O)N[C@@H](CC(=O)O)C(=O)N[C@H](C(N)=O)[C@@H](C)O)C(C)C [compound 49] (H-H[Aib]QGTFTSDYSKYLDARAAK([AEEA-AEEA-γGlu-C14 diacid])DFVQWL[Met(O2)]DT-NH2) |
